Here are results for 26 compounds from patent US11345681B1, “Inhibitors of fibroblast growth factor receptor kinases” (Kinnate Biopharma Inc., priority 2020, dated 2022).

Structures are written as SMILES. Like-named read-outs stand apart in the source and are kept apart here. Some results are limits rather than exact numbers.

The target in this test is Wild type FGFR2 (Homo sapiens (Human), UniProt P21802). Nature of the test: FGFR2 kinase assay (fluorescence-based microfluidic mobility shift assay). Format: biochemical.
Where [1] appears, read: wild type FGFR2 0.06 nM, 100 μM ATP, 80 minutes at room temperature, class symbols.

Chain of Wild type FGFR2 (P21802 22-821): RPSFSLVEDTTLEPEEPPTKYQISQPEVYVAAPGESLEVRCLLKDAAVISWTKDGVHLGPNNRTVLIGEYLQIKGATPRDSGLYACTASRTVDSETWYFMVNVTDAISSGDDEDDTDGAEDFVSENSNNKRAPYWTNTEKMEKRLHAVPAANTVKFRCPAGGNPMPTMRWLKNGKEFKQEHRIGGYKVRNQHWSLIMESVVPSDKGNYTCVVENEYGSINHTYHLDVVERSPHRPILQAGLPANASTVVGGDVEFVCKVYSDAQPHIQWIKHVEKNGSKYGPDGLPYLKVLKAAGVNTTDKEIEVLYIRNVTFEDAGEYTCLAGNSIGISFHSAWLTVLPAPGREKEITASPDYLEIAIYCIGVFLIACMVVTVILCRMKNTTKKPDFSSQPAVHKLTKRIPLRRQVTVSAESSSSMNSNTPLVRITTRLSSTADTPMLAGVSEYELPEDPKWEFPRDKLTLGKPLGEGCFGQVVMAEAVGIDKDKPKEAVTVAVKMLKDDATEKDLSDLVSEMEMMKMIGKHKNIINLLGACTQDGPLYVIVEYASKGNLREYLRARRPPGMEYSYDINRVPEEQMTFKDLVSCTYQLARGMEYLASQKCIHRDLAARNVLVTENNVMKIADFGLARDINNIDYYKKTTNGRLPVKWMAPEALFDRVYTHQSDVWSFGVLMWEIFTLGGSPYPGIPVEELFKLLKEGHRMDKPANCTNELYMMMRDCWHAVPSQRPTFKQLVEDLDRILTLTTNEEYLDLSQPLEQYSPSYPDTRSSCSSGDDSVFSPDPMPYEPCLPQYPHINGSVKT

A word on the IC50: it is the point on the concentration scale where inhibition reaches its midpoint. In the case of `C#CC(=O)N1C[C@@H](n2nc(C#Cc3c(F)cc4c(ncn4C4CC4)c3F)c(C(N)=O)c2NC)C[C@@H]1COC` [Example 184, 3-[2-(1-cyclopropyl-4,6-difluoro-1,3-benzodiazol-5-yl)ethynyl]-1-[(3S,5R)-5-(methoxymethyl)-1-(prop-2-ynoyl)pyrrolidin-3-yl]-5-(methylamino)pyrazole-4-carboxamide], under setting [1], the IC50 is no more than 100 nM. The same measure, in the same setting: next, `CC#CC(=O)N1C[C@@H](n2nc(C#Cc3c(F)cc4c(ncn4C4CC4)c3F)c(C(N)=O)c2NC)C[C@@H]1COC` [Example 185, 1-[(3S,5R)-1-(But-2-ynoyl)-5-(methoxymethyl)pyrrolidin-3-yl]-3-[2-(1-cyclopropyl-4,6-difluoro-1,3-benzodiazol-5-yl)ethynyl]-5-(methylamino)pyrazole-4-carboxamide]: no more than 100 nM; `C=CC(=O)N1CC[C@H](n2nc(C#Cc3c(F)cc4c(ncn4C4CC4)c3F)c(C(N)=O)c2NC)C1` [Example 186, 3-[2-(1-Cyclopropyl-4,6-difluoro-1,3-benzodiazol-5-yl)ethynyl]-5-(methylamino)-1-[(3S)-1-(prop-2-enoyl)pyrrolidin-3-yl]pyrazole-4-carboxamide]: no more than 100 nM; `C=CC(=O)N1C[C@@H](n2nc(C#Cc3c(F)cc4c(ncn4C4CC4)c3F)c(C(N)=O)c2N)C[C@@H]1COC` [Example 189, 5-amino-3-[2-(1-cyclopropyl-4,6-difluoro-1,3-benzodiazol-5-yl)ethynyl]-1-[(3S,5R)-5-(methoxymethyl)-1-(prop-2-enoyl)pyrrolidin-3-yl]pyrazole-4-carboxamide]: no more than 100 nM. On the same count and under the same terms, next, `C=CC(=O)N1CC[C@H](n2nc(C#Cc3c(F)cc4c(ncn4C4CC4)c3F)c(C(N)=O)c2N)C1` [Example 190, 5-Amino-3-[2-(1-cyclopropyl-4,6-difluoro-1,3-benzodiazol-5-yl)ethynyl]-1-[(3S)-1-(prop-2-enoyl)pyrrolidin-3-yl]pyrazole-4-carboxamide]: no more than 100 nM; `C=CC(=O)N1C[C@@H](n2nc(C#Cc3cc4ncn(CC)c4cc3Cl)c(C(N)=O)c2NC)C[C@@H]1CO` [Example 191, 3-[2-(6-Chloro-1-ethyl-1,3-benzodiazol-5-yl)ethynyl]-1-[(3S,5R)-5-(hydroxymethyl)-1-(prop-2-enoyl)pyrrolidin-3-yl]-5-(methylamino)pyrazole-4-carboxamide]: no more than 100 nM. Still for that read-out and setting: next, `C=CC(=O)N1CC(n2nc(C#Cc3cc4ncn(CC)c4cc3Cl)c(C(N)=O)c2NC)C1` [Example 192, 3-[2-(6-chloro-1-ethyl-1,3-benzodiazol-5-yl)ethynyl]-5-(methylamino)-1-[1-(prop-2-enoyl)azetidin-3-yl]pyrazole-4-carboxamide]: no more than 100 nM; `C=CC(=O)N1CC(n2nc(C#Cc3c(F)cc4c(ncn4C4CC4)c3F)c(C(N)=O)c2NC)C1` [Example 193, 3-[2-(1-Cyclopropyl-4,6-difluoro-1,3-benzodiazol-5-yl)ethynyl]-5-(methylamino)-1-[1-(prop-2-enoyl)azetidin-3-yl]pyrazole-4-carboxamide]: no more than 100 nM; `C=CC(=O)N1C[C@@H](n2nc(C#Cc3cc4ncn(CC)c4cc3Cl)c(C(N)=O)c2N)C[C@@H]1CO` [Example 194, 5-Amino-3-[2-(6-chloro-1-ethyl-1,3-benzodiazol-5-yl)ethynyl]-1-[(3S,5R)-5-(hydroxymethyl)-1-(prop-2-enoyl)pyrrolidin-3-yl]pyrazole-4-carboxamide]: no more than 100 nM. Consider `C=CC(=O)N1C[C@@H](n2nc(C#Cc3cc4ncn(CC)c4cc3Cl)c(C(N)=O)c2N)C[C@@H]1COC` [Example 196, 5-Amino-3-[2-(6-chloro-1-ethyl-1,3-benzodiazol-5-yl)ethynyl]-1-[(3S,5R)-5-(methoxymethyl)-1-(prop-2-enoyl)pyrrolidin-3-yl]pyrazole-4-carboxamide], for which the half-maximal inhibitory concentration (IC50) under setting [1] is no more than 100 nM.

For the compound `C#CC(=O)N1C[C@@H](n2nc(C#Cc3cc4ncn(C5CC5)c4cc3F)c(C(N)=O)c2NC)C[C@@H]1CO` [Example 198, 3-[2-(1-Cyclopropyl-6-fluoro-1,3-benzodiazol-5-yl)ethynyl]-1-[(3S,5R)-5-(hydroxymethyl)-1-(prop-2-ynoyl)pyrrolidin-3-yl]-5-(methylamino)pyrazole-4-carboxamide], the IC50 is less than 100 nM. For `C=CC(=O)N1C[C@@H](n2nc(C#Cc3cc4ncn(C5CC5)c4cc3Cl)c(C(N)=O)c2N)C[C@@H]1CO` [Example 199, 5-Amino-3-[2-(6-chloro-1-cyclopropyl-1,3-benzodiazol-5-yl)ethynyl]-1-[(3S,5R)-5-(hydroxymethyl)-1-(prop-2-enoyl)pyrrolidin-3-yl]pyrazole-4-carboxamide], under setting [1], the IC50 is no more than 100 nM. Consider `C=CC(=O)N1C[C@@H](n2nc(C#Cc3cc4ncn(C5CC5)c4cc3Cl)c(C(N)=O)c2N)C[C@@H]1COC` [Example 200, 5-Amino-3-[2-(6-chloro-1-cyclopropyl-1,3-benzodiazol-5-yl)ethynyl]-1-[(3S,5R)-5-(methoxymethyl)-1-(prop-2-enoyl)pyrrolidin-3-yl]pyrazole-4-carboxamide], for which, under setting [1], the IC50 is no more than 100 nM.

For the compound `C=CC(=O)N1C[C@@H](n2nc(C#Cc3c(F)cc4c(ncn4C4CC4)c3F)c(C(N)=O)c2N)C[C@@H]1CO` [Example 201, 5-Amino-3-[2-(1-cyclopropyl-4,6-difluoro-1,3-benzodiazol-5-yl)ethynyl]-[(3S,5R)-5-(hydroxymethyl)-1-(prop-2-enoyl)pyrrolidin-3-yl]pyrazole-4-carboxamide], under setting [1], the IC50 was no more than 100 nM.

Regarding `C=CC(=O)N1CC(n2nc(C#Cc3cc4ncn(C5CC5)c4cc3F)c(C(N)=O)c2N)C1` [Example 202, 5-Amino-3-[2-(1-cyclopropyl-6-fluoro-1,3-benzodiazol-5-yl)ethynyl]-1-[1-(prop-2-enoyl)azetidin-3-yl]pyrazole-4-carboxamide], the IC50 under setting [1] is no more than 100 nM. Same read-out and setting: next, `CNc1c(C(N)=O)c(C#Cc2cc3ncn(C4CC4)c3cc2F)nn1[C@H]1C[C@H](COC)N(C(=O)C#CC(C)(C)O)C1` [Example 203, 3-((1-Cyclopropyl-6-fluoro-1H-benzo[d]imidazol-5-yl)ethynyl)-1-((3S,5R)-1-(4-hydroxy-4-methylpent-2-ynoyl)-5-(methoxymethyl)pyrrolidin-3-yl)-5-(methylamino)-1H-pyrazole-4-carboxamide]: no more than 100 nM; `CNc1c(C(N)=O)c(C#Cc2cc3ncn(C4CC4)c3cc2F)nn1C1CN(C(=O)/C=C/CN(C)C)C1` [Example 204, 3-[2-(1-Cyclopropyl-6-fluoro-1,3-benzodiazol-5-yl)ethynyl]-1-{1-[(2E)-4-(dimethylamino)but-2-enoyl]azetidin-3-yl}-5-(methylamino)pyrazole-4-carboxamide]: 100 to 1000 nM. With `C=CC(=O)N1C[C@@H](n2nc(C#Cc3cc4ncn(C5CC5)c4cc3F)c(C(N)=O)c2NCC)C[C@@H]1COC` [Example 205, 1-((3S,5R)-1-Acryloyl-5-(methoxymethyl)pyrrolidin-3-yl)-3-((1-cyclopropyl-6-fluoro-1H-benzo[d]imidazol-5-yl)ethynyl)-5-(ethylamino)-1H-pyrazole-4-carboxamide], the IC50 under setting [1] was no more than 100 nM. The same measure, in the same setting: next, `C=CC(=O)N1C[C@@H](n2nc(C#Cc3cc4nc(C)n(C5CC5)c4cc3F)c(C(N)=O)c2N)C[C@@H]1COC` [Example 206, 5-Amino-3-[2-(1-cyclopropyl-6-fluoro-2-methyl-1,3-benzodiazol-5-yl)ethynyl]-1-[(3S,5R)-5-(methoxymethyl)-1-(prop-2-enoyl)pyrrolidin-3-yl]pyrazole-4-carboxamide]: no more than 100 nM; `C=CC(=O)N1C[C@@H](n2nc(C#Cc3cc4ncn(C5CC5)c4cc3F)c(C(N)=O)c2N)C[C@@H]1CO` [Example 207, 5-Amino-3-[2-(1-cyclopropyl-6-fluoro-1,3-benzodiazol-5-yl)ethynyl]-1-[(3S,5R)-5-(hydroxymethyl)-1-(prop-2-enoyl)pyrrolidin-3-yl]pyrazole-4-carboxamide]: no more than 100 nM. Still for that read-out and setting: next, `C=CC(=O)N1CC(n2nc(C#Cc3cc4ncn(C5CC5)c4cc3Cl)c(C(N)=O)c2N)C1` [Example 208, 5-Amino-3-[2-(6-chloro-1-cyclopropyl-1,3-benzodiazol-5-yl)ethynyl]-1-[1-(prop-2-enoyl)azetidin-3-yl]pyrazole-4-carboxamide]: no more than 100 nM; `C=CC(=O)N1CC(n2nc(C#Cc3cc4ncn(CC)c4cc3Cl)c(C(N)=O)c2N)C1` [Example 209, 5-Amino-3-[2-(6-chloro-1-ethyl-1,3-benzodiazol-5-yl)ethynyl]-1-[1-(prop-2-enoyl)azetidin-3-yl]pyrazole-4-carboxamide]: no more than 100 nM; `C=CC(=O)N1CC(n2nc(C#Cc3c(F)cc4c(ncn4C4CC4)c3F)c(C(N)=O)c2N)C1` [Example 210, 5-Amino-3-[2-(1-cyclopropyl-4,6-difluoro-1,3-benzodiazol-5-yl)ethynyl]-1-[1-(prop-2-enoyl)azetidin-3-yl]pyrazole-4-carboxamide]: no more than 100 nM. Still for that read-out and setting: next, `C=CC(=O)N1C[C@@H](n2nc(C#Cc3cc4ncn(C5CC5)c4cc3F)c(C(N)=O)c2N)C[C@@H]1COC(F)F` [Example 211, 5-Amino-3-[2-(1-cyclopropyl-6-fluoro-1,3-benzodiazol-5-yl)ethynyl]-1-[(3S,5R)-5-[(difluoromethoxy)methyl]-1-(prop-2-enoyl)pyrrolidin-3-yl]pyrazole-4-carboxamide]: no more than 100 nM; `C=CC(=O)N1C[C@@H](n2nc(C#Cc3ccc4c(c3)ncn4C3CC3)c(C(N)=O)c2N)C[C@@H]1COC(F)F` [Example 212, 5-Amino-3-[2-(1-cyclopropyl-1,3-benzodiazol-5-yl)ethynyl]-1-[(3S,5R)-5-[(difluoromethoxy)methyl]-1-(prop-2-enoyl)pyrrolidin-3-yl]pyrazole-4-carboxamide]: no more than 100 nM.

With `C=CC(=O)N1C[C@@H](n2nc(C#Cc3cc4nc(C)n(C5CC5)c4cc3Cl)c(C(N)=O)c2N)C[C@@H]1COC` [Example 214, 5-Amino-3-[2-(6-chloro-1-cyclopropyl-2-methyl-1,3-benzodiazol-5-yl)ethynyl]-1-[(3S,5R)-5-(methoxymethyl)-1-(prop-2-enoyl)pyrrolidin-3-yl]pyrazole-4-carboxamide], the IC50 under setting [1] was no more than 100 nM.
